Test results from patent US11731977B2, “SGC stimulators” (Cyclerion Therapeutics, Inc., priority 2016, dated 2023).
Where two headings read alike, the source gives them in different places.

Key:
rats = experiment: Inflammatory pain: kaolin, gait score (Example 13); assay type: in vivo, rat; conditions: Compound I-1 p.o. 10 mg/kg, 120 minutes after treatment
Description: Kaolin. Induction: In rats, unilateral arthritis was induced by an intra-articular injection of a 10% kaolin suspension into the knee joint of the right hind paw under gas anesthesia (3.5% isoflurane/3 L/min). Gait score: The gait score will be evaluated 3 h 30 min after kaolin administration by:
2: intermittent raising of the paw

[1] = Non-human primate (NHP) CSF pharmacokinetic properties (Example 6); assay type: in vivo, Cynomolgus monkeys; conditions: male, Cynomolgus monkey
Description: Protocol PK in NHP was determined following intravenous and oral dosing. For the intravenous (IV) experiments, a group of 4 male Cynomolgus monkeys were used. The IV group was dosed with 0.3 mg/kg of a compound formulated as a solution in 10% PEG-400, 25% of a 20% Solutol HS 15 in Water, and 65% DPBS. IV doses were administered by injection and delivered via catheter into the cephalic vein. For the oral (PO) experiments, a group of 4 male Cynomolgus monkeys were used. The PO group was dosed with 1 mg/kg of a compound formulated as a suspension in 1% HPMC E5, 0.2% Tween 80, 0.5% MC in water. PO doses were administered by oral gavage and delivered via gelatin capsule.
Plasma and CSF samples were collected as follows: samples of CSF and blood were collected at 1, 4 and 24 hours post IV dosing and 2, 8 and 24 hours post PO dosing. CSF samples (0.05 mL) were collected either the cisterna magna (primary site) or the lumbosacral region (L4/5) via direct needle puncture at the appropriate time points. Blood samples (0.25 mL) were collected from a peripheral vein. These samples were kept on ice until processed for plasma. Blood samples were centrifuged at 3200 rpm for 5 minutes at approximately 5° C. within 1 hour of collection. Plasma was directly transferred to a 96-well plate tube (0.125 mL). Plug caps were placed on the tubes and the tubes frozen at approximately −70° C. and stored until analysis. Plasma was collected and analyzed for the presence of a compound.
Quantitation of Compounds. The compound of the invention and the internal standard were extracted from plasma and CSF by precipitation. Samples were analyzed using liquid chromatography (LC) with tandem mass spectrometric detection (MS/MS) using electrospray ionization. The standard curve range was from 1 to 1000 ng/mL. Results of the compounds described herein in this assay are illustrated in Tables 6a and 6b below (0.3 mg/kg IV dose, 1 mg/kg PO dose).
Kp,uu is defined as the concentration ratio of unbound drug in CSF to unbound drug in plasma. Unbound drug in plasma (or free plasma concentration) is calculated by multiplying the total plasma concentration by the unbound fraction as determined by plasma protein binding. The CSF concentration is then divided by the free plasma concentration to determine the Kp,uu. (See e.g., Di et al., J. Med Chem., 56, 2-12 (2013))

Kp uu at 1 h ([1]; CSF / unbound plasma, 0.3 mg/kg IV, @ 1 h): 1.8
Kp uu at 4 h ([1]; CSF / unbound plasma, 0.3 mg/kg IV, @ 4 h): 3
Kp uu at 24 h ([1]; CSF / unbound plasma, 0.3 mg/kg IV): 2.8
Kp uu at 2 h ([1]; CSF / unbound plasma, 1 mg/kg PO, @ 2 h): 1.8
Kp uu at 8 h ([1]; CSF / unbound plasma, 1 mg/kg PO, @ 8 h): 2.5
Kp uu at 24 h ([1]; CSF / unbound plasma, 1 mg/kg PO): 2.1
concentration at 1 h ([1]; CSF, 0.3 mg/kg IV, @ 1 h, read-out: CSF Conc.): 27 nM
concentration at 4 h ([1]; CSF, 0.3 mg/kg IV, @ 4 h, read-out: CSF Conc.): 20 nM
concentration at 24 h ([1]; CSF, 0.3 mg/kg IV, read-out: CSF Conc.): 6 nM
concentration at 2 h ([1]; CSF, 1 mg/kg PO, @ 2 h, read-out: CSF Conc.): 42 nM
concentration at 8 h ([1]; CSF, 1 mg/kg PO, @ 8 h, read-out: CSF Conc.): 31 nM
concentration at 24 h ([1]; CSF, 1 mg/kg PO, read-out: CSF Conc.): 11 nM
Compound: Fc1ccccc1Cc1nc(-c2nc(C(F)(F)F)n[nH]2)cn2ccnc12 [Compound I-1, 8-(2-fluorobenzyl)-6-(3-(trifluoromethyl)-1H-1,2,4-triazol-5-yl)imidazo[1,2-a]pyrazine]
% of activity vs. vehicle (rats): 40%
